Test systems include CAKI-1 renal; HT29 colon; NCI-H23 lung; RPMI-8226 leukemia; SF-295 CNS; SW-620 colon; UACC-257 melanoma; COLO 205 colon; NCI-H226 lung; MDA-MB-435.
Assay in all cases: inhibition of tumour cell growth, NCI panel, 48 h

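Where inhibition never reached the appropriate level, the endpoint shown equals the highest concentration tested. Otherwise, values were interpolated linearly from a five-concentration, 48-hour dose response in 96-well plates. GI50: concentration for 50% inhibition of growth. Definition used: TGI = concentration required for complete inhibition of growth.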 Where a SMILES comes first, the peptide text is derived from it. Bridges are numbered along the chain shown (N, C = ends). Bounds are passed on as bounds.

For `CC1(C)C=C(N2CCN(C3=CC(C)(C)NC(C)(C)C3)CC2)CC(C)(C)N1`, the TGI in the assay on CAKI-1 renal, in the assay on HT29 colon, in the assay with NCI-H23 lung, in the assay on RPMI-8226 leukemia, with SF-295 CNS and in the assay with SW-620 colon was over 100 µM throughout. Moreover, the TGI in the assay with UACC-257 melanoma was over 100 µM.

For the compound `CC(O)(c1ccc(OCCC[N+](C)(C)C)cc1)C(C)(O)c1ccc(OCCC[N+](C)(C)C)cc1` (configuration not stated), the TGI with CAKI-1 renal, in the assay with COLO 205 colon, with HT29 colon, with NCI-H226 lung, with NCI-H23 lung and with SF-295 CNS was over 100 µM in each case. For the same compound, the TGI in the assay on SW-620 colon and with UACC-257 melanoma was over 100 µM throughout.

In the case of `CSC(=NC(=O)c1ccccc1)SCCSC(=NC(=O)c1ccccc1)SC`, the TGI in the assay on CAKI-1 renal, in the assay with COLO 205 colon, in the assay with HT29 colon, in the assay with NCI-H226 lung, in the assay on NCI-H23 lung and in the assay on RPMI-8226 leukemia was over 100 µM in each case. Further, the TGI in the assay on SF-295 CNS, in the assay on SW-620 colon and in the assay with UACC-257 melanoma was over 100 µM in each case.

With `CN(CCc1ccccn1)/[N+]([O-])=N/O` (tested in a mixture with another compound), the TGI in the assay with CAKI-1 renal, in the assay with COLO 205 colon, in the assay with HT29 colon, in the assay with NCI-H226 lung, with NCI-H23 lung and in the assay on RPMI-8226 leukemia was over 100 µM in each case. The TGI in the assay on SF-295 CNS, in the assay with SW-620 colon and in the assay with UACC-257 melanoma was over 100 µM each time.

As to `CCN(CC)CCNc1ccc(N=Nc2cnc3ccccc3c2)c2ccccc12`, the GI50 in the assay with CAKI-1 renal was 1.39 µM; with COLO 205 colon, 1.61 µM; with HT29 colon, 1.38 µM; in the assay with NCI-H226 lung, 1.71 µM; with NCI-H23 lung, 1.6 µM; in the assay with SF-295 CNS it was 1.77 µM. Further, the GI50 was 1.83 µM with SW-620 colon and 1.96 µM with UACC-257 melanoma. Besides, the TGI with CAKI-1 renal was 3.21 µM; with COLO 205 colon, 2.98 µM; with HT29 colon, 2.67 µM; in the assay on NCI-H226 lung, 3.66 µM; in the assay with NCI-H23 lung, 3.07 µM; in the assay with SF-295 CNS it was 3.38 µM. Also, the TGI in the assay on SW-620 colon came out at 3.47 µM; in the assay on UACC-257 melanoma, 3.49 µM.

As for `CCCCCCCCC1C(C)c2c([nH]c3ccccc23)C2C(=O)N(c3ccccc3)C(=O)C21` (configuration not stated), the TGI came out at 27.5 µM with CAKI-1 renal; 19.1 µM in the assay with HT29 colon; 25.9 µM in the assay on NCI-H226 lung; 14.7 µM with NCI-H23 lung; 12.9 µM with RPMI-8226 leukemia; 29.8 µM in the assay with SF-295 CNS. Further, in the assay with SW-620 colon, the TGI was 41.5 µM.

As to `Cc1nccc2c3ccc(OCc4cn(-c5ccc(Br)cc5)nn4)cc3n(CCCc3ccccc3)c12`, the GI50 with HT29 colon is 2.9 µM; with NCI-H226 lung, 1.75 µM; in the assay on SF-295 CNS, over 100 µM; in the assay on UACC-257 melanoma, 2.06 µM. The TGI in the assay on HT29 colon is over 100 µM; in the assay on NCI-H226 lung, 13.6 µM; with SF-295 CNS, over 100 µM; in the assay on UACC-257 melanoma it was 4.4 µM.

As for `COC(=O)/C=C(C)/C=C/c1c(C)c(C(C)=O)c(C)n1C`, the TGI in the assay with CAKI-1 renal, with COLO 205 colon, with HT29 colon, in the assay on NCI-H226 lung, in the assay with NCI-H23 lung and with RPMI-8226 leukemia was over 100 µM in each case. Moreover, the TGI in the assay with SF-295 CNS, with SW-620 colon and in the assay with UACC-257 melanoma was over 100 µM in each case.

For the compound `CCc1cc2c(Nc3ccccc3)c3c(nc2s1)CCCC3`, the TGI was over 100 µM in the assay on COLO 205 colon; 87 µM in the assay with RPMI-8226 leukemia; over 100 µM in the assay with SF-295 CNS; over 100 µM with SW-620 colon; over 100 µM in the assay with UACC-257 melanoma.

Take `CC(/C=C1\CCC(CN(C)C)C1=O)c1cccc(Br)c1` (configuration not stated): the TGI turned out to be 21.1 µM in the assay on CAKI-1 renal; 37.4 µM in the assay with COLO 205 colon; 20.7 µM in the assay on HT29 colon; 48.8 µM with NCI-H226 lung; 38 µM with NCI-H23 lung; 6.08 µM in the assay on RPMI-8226 leukemia. Besides, the TGI in the assay on SF-295 CNS stood at 42.3 µM; in the assay with SW-620 colon, 26.2 µM; in the assay with UACC-257 melanoma it was 31.6 µM.

Turning to `COc1ccc2[nH]cc(C3(c4c[nH]c5ccc(OC)cc45)C(=O)Nc4ccc(Cl)cc43)c2c1`, the GI50 in the assay on CAKI-1 renal is 2.25 µM; with COLO 205 colon it was 1.88 µM; with NCI-H226 lung it was 3.38 µM; in the assay with NCI-H23 lung, 3.03 µM; in the assay on RPMI-8226 leukemia it was 6.51 µM; in the assay on SF-295 CNS it was 2.1 µM. Further, the GI50 was 3.89 µM in the assay with SW-620 colon and 2.84 µM with UACC-257 melanoma. For the same compound, the TGI in the assay with CAKI-1 renal is over 100 µM; in the assay on COLO 205 colon, 3.53 µM; with NCI-H226 lung, 30 µM; in the assay with NCI-H23 lung it was 23.2 µM; in the assay on RPMI-8226 leukemia it was over 100 µM; in the assay with SF-295 CNS it was 6.26 µM. Moreover, the results for the TGI in the assay on SW-620 colon and in the assay with UACC-257 melanoma were 49.4 µM and over 100 µM, respectively.

Consider `CCC(C)C1NC(=O)C(CC(C)C)NC(=O)C(C(C)C)NC(=O)C2CSSCC(NC1=O)C(=O)N2` (configuration not stated) (cyclo(CCVLI); disulfide 1-2; configuration not given here), for which the TGI was found to be 5.41 µM in the assay on CAKI-1 renal; 0.223 µM with COLO 205 colon; 0.356 µM with HT29 colon; 0.391 µM in the assay with MDA-MB-435; 0.277 µM with NCI-H23 lung; 0.34 µM in the assay on SF-295 CNS. Moreover, in the assay on UACC-257 melanoma, the TGI was 0.279 µM.

For `CCCc1nn(C)c(CCC(=O)N(Cc2ccccc2)Cc2ccccc2)c1CC`, the TGI in the assay on COLO 205 colon, in the assay with HT29 colon, in the assay with NCI-H226 lung, in the assay with NCI-H23 lung, in the assay with RPMI-8226 leukemia and in the assay with SF-295 CNS was over 100 µM each time. In addition, the TGI with SW-620 colon and in the assay with UACC-257 melanoma was over 100 µM in each case.

For the compound `CCC1=CCC(P(=O)(c2ccccc2)c2ccccc2)CC1C` (configuration not stated), the TGI in the assay on CAKI-1 renal is over 100 µM; with COLO 205 colon, over 100 µM; in the assay on HT29 colon, over 100 µM; with NCI-H226 lung it was over 100 µM; in the assay on NCI-H23 lung, over 100 µM; in the assay on RPMI-8226 leukemia, 52.9 µM. Also, the TGI with SF-295 CNS, in the assay with SW-620 colon and in the assay with UACC-257 melanoma was over 100 µM each time.

The record behind these values is PubChem BioAssay (NCI).
